Each structure is given as a SMILES string.

The subject of experiment [1] is MC38 tumors. Put plainly: MC38 colon carcinoma syngeneic model, immune competent C57BL/6 mice. The experiment is classed as in vivo, mouse. Particulars: MC38 in C57BL/6 mice; venetoclax 50 mg/kg/day orally 14 days; antibody 10 mg/kg IP every 4 days, 3 times; day 25.
Experimental: BALB/c, C57BL/6, CB6F1 (C57BL/6 bred with BALB/c) and SCID mice were obtained from Charles River (Wilmington, Mass.).
MC38, mouse colon carcinoma cell line was obtained from National Cancer Institute (NCI).
Compound (I),venetoclax, was formulated in 10% ethanol+30% PEG 400+60% Phosal® 50PG. Venetoclax was administered orally once a day for 14 days at 50 mg/kg/day.
1×10^5 CT26, EMT6 or MC38 cells were subcutaneously injected with Matrigel into the flanks of BALB/c, CB6F1 or C57BL/6 mice, respectively. Seven days later, mice were randomized to treatment groups of vehicle, venetoclax, anti-PD-1/PD-L1 or the combination of venetoclax and anti-PD-1/PD-L1. Tumor volume was determined via measurements of the length (L) and width (W) of the tumor with electronic calipers and the volume was calculated according to the following equation: V=L×W2/2 using Study Director Version 2.1.11 (Studylog Systems Inc., South San Francisco). Complete response (CR) was defined as reduction in tumor volume to ≤25 mm^3 over at least 3 successive measurements.
Experiment [2] has as its system CT26. As to the kind of experiment: Venetoclax cell killing (CellTiter-Glo). Particulars: Mus musculus, CT26, 72 h; Colorectal; 10% FBS; 3 days. The experiment is classed as cell-based, murine. As for the experimental part: (§1) Solid tumor cell lines were obtained from American Type Culture Collection (ATCC, Manassas, Va.) or the National Cancer Institute (NCI) and cultured in humidified incubators at 37° C. (5% CO2) in appropriate media (specified by supplier) supplemented with 10% fetal bovine serum (FBS) or 10% human serum (HS). 24 hours after plating into 96-well or 384-well tissue culture plates, venetoclax was added to cells at various concentrations (typically 0.010 to 10 μM in half-log increments) to perform concentration-response assessments of cell killing. After 1 to 5 days of culture in the presence of venetoclax, cell viability was assessed using CellTiter-Glo® reagent (Promega). IC50 values were determined by non-linear regression analysis of the concentration response data (Table 5 and Table 6).

Experiment [3] has as its system 4T1. Put plainly: Venetoclax cell killing (CellTiter-Glo). The experiment is classed as cell-based, murine. Particulars: Mus musculus, 4T1, 72 h; Breast Cancer; 10% FBS; 3 days. The procedure:
as §1

Experiment [4] concerns LL2. Put plainly: Venetoclax cell killing (CellTiter-Glo). The experiment is classed as cell-based, murine. Particulars: Mus musculus, LL/2, 72 h; Lung Cancer; 10% FBS; 3 days. The procedure:
as §1

Experiment [5] concerns EMT6. As to the kind of experiment: Venetoclax cell killing (CellTiter-Glo). The experiment is classed as cell-based, murine. As to conditions: Mus musculus, EMT6, 72 h; Breast Cancer; 10% FBS; 3 days. The procedure: as §1
In experiment [6] the test system is Renca. Put plainly: Venetoclax cell killing (CellTiter-Glo). The experiment is classed as cell-based, murine. As to conditions: Mus musculus, 72 h, Renal Adenocarcinoma, 10% FBS, 3 days. As for the experimental part:
as §1

The subject of experiment [7] is B16F1. As to the kind of experiment: Venetoclax cell killing (CellTiter-Glo). The experiment is classed as cell-based, murine. As to conditions: Mus musculus, B16-F1, 72 h; Melanoma; 10% FBS; 3 days. As for the experimental part: as §1
The subject of experiment [8] is MC38. Put plainly: Venetoclax cell killing (CellTiter-Glo). The experiment is classed as cell-based, murine. Particulars: Mus musculus, MC-38, 72 h; Colorectal; 10% FBS; 3 days. The procedure: as §1
Experiment [9] concerns B16F10. As to the kind of experiment: Venetoclax cell killing (CellTiter-Glo). The experiment is classed as cell-based, murine. Particulars: Mus musculus, B16-F10, 72 h; Melanoma; 10% FBS; 3 days. The procedure: as §1

With `CC1(C)CCC(CN2CCN(c3ccc(C(=O)NS(=O)(=O)c4ccc(NCC5CCOCC5)c([N+](=O)[O-])c4)c(Oc4cnc5[nH]ccc5c4)c3)CC2)=C(c2ccc(Cl)cc2)C1` [Compound (I), venetoclax], the “tumor growth inhibition (TGI)” value in [1] was 41%. Further, the IC50 in experiment [2], in experiment [3], in experiment [4], in experiment [5], in experiment [6] and in experiment [7] was above 10 µM in each case. Besides, the IC50 is around 10 µM in experiment [8] and above 10 µM in experiment [9].

The values above are taken from patent US20190336496A1, “SELECTIVE BCL-2 INHIBITORS IN COMBINATION WITH AN ANTI-PD-1 OR AN ANTI-PD-L1 ANTIBODY FOR THE TREATMENT OF CANCERS” (AbbVie Inc., priority 2018, published 2019).
